Laboratory results published in PubChem BioAssay AID282 (DTP/NCI, 2004).
Values joined by “and” are separate entries in the source; they are usually repeats but may differ in a detail not shown here. Equal values may be shown once. Toxic doses and inconclusive results are not listed.

System: BDF1 mice, L1210 terephthalanilide-resistant leukemia ip, survival T/C
Assay: NCI In Vivo Anticancer Drug Screen. Data for tumor model L1210 Leukemia resistant to A Terephthalanilide; NSC 38280 (intraperitoneal) in B6D2F1 (BDF1) mice
Settings: endpoint: mean survival time, higher = longer survival
Protocol: The antitumor activity of compounds was measured in mice bearing transplantable tumors. Survival or tumor size were measured and the results are expressed as the measurement made in the treated group (T) divided by the measurement made in the vehicle treated control group (C). The tumor model used in this assay is L1210 Leukemia resistant to A Terephthalanilide; NSC 38280 (intraperitoneal) in B6D2F1 (BDF1) mice

[1] = dose: 62.5 mg/kg/injection, schedule: Q01DX010 (ip), vehicle: saline
[2] = dose: 125.0 mg/kg/injection, schedule: Q01DX010 (ip), vehicle: saline
[3] = dose: 125.0 mg/kg/injection, schedule: Q01DX Z (ip), vehicle: carboxymethylcellulose (CMC)
[4] = dose: 250.0 mg/kg/injection, schedule: Q01DX010 (ip), vehicle: saline
[5] = dose: 250.0 mg/kg/injection, schedule: Q01DX Z (ip), vehicle: carboxymethylcellulose (CMC)
[6] = dose: 500.0 mg/kg/injection, schedule: Q01DX010 (ip), vehicle: saline
[7] = dose: 500.0 mg/kg/injection, schedule: Q01DX Z (ip), vehicle: carboxymethylcellulose (CMC)
[8] = dose: 500.0 mg/kg/injection, schedule: Q01DX Z (ip), vehicle: saline
[9] = dose: 5.0 mg/kg/injection, schedule: Q01DX010 (ip), vehicle: saline
[10] = dose: 10.0 mg/kg/injection, schedule: Q01DX010 (ip), vehicle: saline
[11] = dose: 20.0 mg/kg/injection, schedule: Q01DX010 (ip), vehicle: saline
[12] = dose: 40.0 mg/kg/injection, schedule: Q01DX010 (ip), vehicle: saline
[13] = dose: 12.5 mg/kg/injection, schedule: Q01DX010 (ip), vehicle: saline
[14] = dose: 25.0 mg/kg/injection, schedule: Q01DX010 (ip), vehicle: saline
[15] = dose: 50.0 mg/kg/injection, schedule: Q01DX Z (ip), vehicle: saline
[16] = dose: 75.0 mg/kg/injection, schedule: Q01DX Z (ip), vehicle: saline
[17] = dose: 100.0 mg/kg/injection, schedule: Q01DX Z (ip), vehicle: saline

For `Nc1ncnc2c1ccn2C1OC(CO)C(O)C1O` (centres undefined), the T/C (dose: 0.23 mg/kg/injection, schedule: Q01DX Z (ip), vehicle: saline) was 98 % of control, the T/C (dose: 0.47 mg/kg/injection, schedule: Q01DX Z (ip), vehicle: saline) was 113 % of control and the T/C (dose: 0.93 mg/kg/injection, schedule: Q01DX Z (ip), vehicle: saline) was 109 % of control. For the same compound, the T/C (dose: 1.87 mg/kg/injection, schedule: Q01DX Z (ip), vehicle: saline) was 116 % of control and the T/C (dose: 2.5 mg/kg/injection, schedule: Q01DX Z (ip), vehicle: carboxymethylcellulose (CMC)) was 103 % of control.

For `O=c1cn[nH]c(=O)[nH]1`, the T/C (dose: 62.0 mg/kg/injection, schedule: Q01DX Z (ip), vehicle: carboxymethylcellulose (CMC)) was 101 % of control, the T/C [1] was 97 % of control and 101 % of control and the T/C [2] was 97 % of control and 105 % of control. The T/C [3] was 101 % of control, the T/C [4] was 106 % of control and 113 % of control and the T/C [5] was 106 % of control. For the same compound, the T/C [6] was 123 % of control and 115 % of control and the T/C [7] was 113 % of control.

`Nc1nc2n[nH]nc2c(=O)[nH]1` was tested, and the T/C (dose: 6.25 mg/kg/injection, schedule: Q01DX Z (ip), vehicle: water) was 106 % of control, the T/C (dose: 12.5 mg/kg/injection, schedule: Q01DX Z (ip), vehicle: water) was 113 % of control and the T/C (dose: 400.0 mg/kg/injection, schedule: Q01DX Z (ip), vehicle: water) was 95 % of control.

With `CC(=O)N(C)C` the T/C [1] was 94 % of control and 105 % of control, the T/C [2] was 92 % of control and 97 % of control and the T/C (dose: 125.0 mg/kg/injection, schedule: Q01DX Z (ip), vehicle: saline) was 108 % of control. For the same compound, the T/C [4] was 90 % of control and 96 % of control, the T/C (dose: 250.0 mg/kg/injection, schedule: Q01DX Z (ip), vehicle: saline) was 112 % of control and the T/C [6] was 96 % of control and 105 % of control. The T/C [8] was 110 % of control and the T/C (dose: 750.0 mg/kg/injection, schedule: Q01DX Z (ip), vehicle: saline) was 114 % of control.

For `C[C@@H]1C[C@@H]([C@H](O)CC2CC(=O)NC(=O)C2)C(=O)[C@@H](C)C1`, the T/C (dose: 1.25 mg/kg/injection, schedule: Q01DX Z (ip), vehicle: saline) was 101 % of control, the T/C (dose: 2.5 mg/kg/injection, schedule: Q01DX Z (ip), vehicle: saline) was 107 % of control and the T/C [9] was 100 % of control and 105 % of control. The T/C (dose: 5.0 mg/kg/injection, schedule: Q01DX Z (ip), vehicle: saline) was 106 % of control, the T/C (dose: 7.5 mg/kg/injection, schedule: Q01DX Z (ip), vehicle: saline) was 107 % of control and the T/C [10] was 123 % of control and 113 % of control. The T/C [11] was 113 % of control and 117 % of control and the T/C [12] was 115 % of control.

For `COS(C)(=O)=O`, the T/C [13] was 93 % of control, the T/C [14] was 101 % of control and the T/C (dose: 25.0 mg/kg/injection, schedule: Q01DX Z (ip), vehicle: saline) was 95 % of control. For the same compound, the T/C (dose: 50.0 mg/kg/injection, schedule: Q01DX010 (ip), vehicle: saline) was 102 % of control, the T/C [15] was 101 % of control and the T/C [16] was 106 % of control. For the same compound, the T/C (dose: 100.0 mg/kg/injection, schedule: Q01DX010 (ip), vehicle: saline) was 100 % of control and the T/C [17] was 106 % of control.

`CC(=O)O[C@]1(C(C)=O)CC[C@H]2[C@@H]3C[C@H](C)C4=CC(=O)C=C[C@]4(C)[C@@]3(F)[C@@H](O)C[C@@]21C` was tested, and the T/C (dose: 12.5 mg/kg/injection, schedule: Q01DX010 (sc), vehicle: steriod suspending solution) was 102 % of control, the T/C (dose: 25.0 mg/kg/injection, schedule: Q01DX010 (sc), vehicle: steriod suspending solution) was 98 % of control and the T/C (dose: 50.0 mg/kg/injection, schedule: Q01DX010 (sc), vehicle: steriod suspending solution) was 98 % of control. The T/C (dose: 50.0 mg/kg/injection, schedule: Q01DX Z (sc), vehicle: steriod suspending solution) was 102 % of control, the T/C (dose: 75.0 mg/kg/injection, schedule: Q01DX Z (sc), vehicle: steriod suspending solution) was 104 % of control and the T/C (dose: 100.0 mg/kg/injection, schedule: Q01DX010 (sc), vehicle: steriod suspending solution) was 91 % of control. The T/C (dose: 100.0 mg/kg/injection, schedule: Q01DX Z (sc), vehicle: steriod suspending solution) was 102 % of control and the T/C (dose: 150.0 mg/kg/injection, schedule: Q01DX Z (sc), vehicle: steriod suspending solution) was 102 % of control.

With `CC[n+]1c(-c2ccccc2)c2cc(N)ccc2c2ccc(N)cc21` the T/C (dose: 1.25 mg/kg/injection, schedule: Q01DX010 (ip), vehicle: saline) was 100 % of control, the T/C (dose: 2.5 mg/kg/injection, schedule: Q01DX010 (ip), vehicle: saline) was 90 % of control and the T/C [9] was 101 % of control. For the same compound, the T/C [10] was 95 % of control.

`CC(=O)OCC1OC(n2ncc(=O)[nH]c2=O)C(OC(C)=O)C1OC(C)=O` (centres undefined) was tested, and the T/C [3] was 183 % of control, the T/C [5] was 206 % of control and the T/C (dose: 375.0 mg/kg/injection, schedule: Q01DX Z (ip), vehicle: carboxymethylcellulose (CMC)) was 214 % of control. For the same compound, the T/C [7] was 168 % of control.

In the case of `CN(C)CC(=O)c1ccc(O)c(O)c1`, the T/C (dose: 134.0 mg/kg/injection, schedule: Q01DX010 (ip), vehicle: saline) is reported as 104 % of control, the T/C (dose: 135.0 mg/kg/injection, schedule: Q01DX010 (ip), vehicle: saline) is reported as 114 % of control and the T/C (dose: 200.0 mg/kg/injection, schedule: Q01DX010 (ip), vehicle: saline) is reported as 104 % of control and 105 % of control. For the same compound, the T/C (dose: 300.0 mg/kg/injection, schedule: Q01DX010 (ip), vehicle: saline) was 120 % of control and 97 % of control and the T/C (dose: 450.0 mg/kg/injection, schedule: Q01DX010 (ip), vehicle: saline) was 121 % of control and 110 % of control.

For `OCC1OC(n2cnc3c(=S)nc[nH]c32)C(O)C1O` (centres undefined), the T/C [11] was 111 % of control, the T/C [12] was 119 % of control and the T/C (dose: 160.0 mg/kg/injection, schedule: Q01DX010 (ip), vehicle: saline) was 162 % of control.

With `c1ccc(CCSc2ncnc3nc[nH]c23)cc1` the T/C [1] was 90 % of control, the T/C [2] was 104 % of control and the T/C [4] was 99 % of control.

In the case of `O=c1[nH]c(=O)n(C2CC(O)C(CO)O2)cc1I` (centres undefined), the T/C [7] is reported as 151 % of control.

With `CN(C)C(=S)N=Nc1c(O)[nH]c2ccccc12` the T/C (dose: 25.0 mg/kg/injection, schedule: Q01DX Z (ip), vehicle: carboxymethylcellulose (CMC)) was 90 % of control, the T/C (dose: 50.0 mg/kg/injection, schedule: Q01DX Z (ip), vehicle: carboxymethylcellulose (CMC)) was 98 % of control and the T/C (dose: 100.0 mg/kg/injection, schedule: Q01DX Z (ip), vehicle: carboxymethylcellulose (CMC)) was 89 % of control.

`CSc1ncnc2c1ncn2C1OC(CO)C(O)C1O` (centres undefined) was tested, and the T/C (dose: 4.0 mg/kg/injection, schedule: Q01DX010 (ip), vehicle: saline) was 105 % of control, the T/C (dose: 5.5 mg/kg/injection, schedule: Q01DX Z (ip), vehicle: saline) was 117 % of control and the T/C (dose: 8.0 mg/kg/injection, schedule: Q01DX010 (ip), vehicle: saline) was 116 % of control. For the same compound, the T/C (dose: 15.0 mg/kg/injection, schedule: Q01DX010 (ip), vehicle: saline) was 151 % of control, the T/C (dose: 16.0 mg/kg/injection, schedule: Q01DX010 (ip), vehicle: saline) was 122 % of control and the T/C [11] was 162 % of control. For the same compound, the T/C (dose: 37.5 mg/kg/injection, schedule: Q01DX Z (ip), vehicle: saline) was 154 % of control, the T/C [15] was 101 % of control and the T/C [16] was 88 % of control.

With `CCCCNc1ncnc2c1cnn2C` the T/C (dose: 31.3 mg/kg/injection, schedule: Q01DX010 (ip), vehicle: saline) was 100 % of control, the T/C [1] was 105 % of control and 108 % of control and the T/C [2] was 89 % of control.

For `CN(C)c1ccc(Nc2c3ccccc3nc3ccccc23)cc1`, the T/C (dose: 36.0 mg/kg/injection, schedule: Q01DX010 (ip), vehicle: saline) was 108 % of control, the T/C (dose: 54.0 mg/kg/injection, schedule: Q01DX010 (ip), vehicle: saline) was 102 % of control and 111 % of control and the T/C (dose: 80.0 mg/kg/injection, schedule: Q01DX010 (ip), vehicle: saline) was 97 % of control and 109 % of control. The T/C (dose: 120.0 mg/kg/injection, schedule: Q01DX010 (ip), vehicle: saline) was 119 % of control.

In the case of `CCOC(N)=O`, the T/C [15] is reported as 107 % of control, the T/C [17] is reported as 93 % of control and the T/C [2] is reported as 100 % of control and 103 % of control. The T/C (dose: 200.0 mg/kg/injection, schedule: Q01DX Z (ip), vehicle: saline) was 106 % of control, the T/C [4] was 100 % of control and 103 % of control and the T/C (dose: 400.0 mg/kg/injection, schedule: Q01DX Z (ip), vehicle: saline) was 106 % of control. The T/C [6] was 99 % of control and 101 % of control, the T/C [8] was 96 % of control and the T/C (dose: 1000.0 mg/kg/injection, schedule: Q01DX Z (ip), vehicle: saline) was 91 % of control.

In the case of `O=NN(CCCl)C(=O)NCCCl`, the T/C (dose: 6.25 mg/kg/injection, schedule: Q01DX010 (ip), vehicle: saline) is reported as 224 % of control, the T/C [13] is reported as 105 % of control and the T/C [14] is reported as 89 % of control.
